Values of other authors in article PMC9255981 (The Oncologist, 2022).

System: patients
Settings: phase I study ref [1],[2]

C=CC(=O)N1CCN(c2nc(=O)n(-c3c(C)ccnc3C(C)C)c3nc(-c4c(O)cccc4F)c(F)cc23)[C@@H](C)C1 [sotorasib]
grade of blood CPK increase events (all events): 1 | Myalgia, regardless of causality: 10 % of patients | blood CPK increase: 3.9% | most frequent treatment-related AEs (>10%): diarrhea, AST increased, and ALT increased
